In US5043343A (priority 1989, dated 1991):
Counter-ions that a name gives are not always drawn.

Assays:
[1] = molecular target: muscarinic receptors (3H-OXO-M site, cerebral cortex); test: Radio ligand binding: displacement of muscarinic agonist 3H-Oxotremorine-M (3H-OXO-M), rat cerebral cortex membranes; set-up: species or system Hooded Lister rats; settings: 2 nM 3H-OXO-M, 2mM magnesium chloride, tris buffer pH 7.7, 37° C., 30 min
[2] = molecular target: muscarinic receptors (3H-QNB site, cerebral cortex); type: binding, Hooded Lister rats; settings: 0.27nM 3H-QNB, tris buffer pH 7.7, 37° C., 30 min; rat cerebral cortex

SMILES	IC50 [1]	IC50 [2]
CCc1noc(C23CCCN(C2)C3)n1 [Example E5, 5-(3-Ethyl-1.2.4-oxadiazol-5-yl)-1-azabicyclo[3.1.11]-heptane oxalate salt]	71 nM	5200 nM
Cc1nnc(C23CCCN(C2)C3)o1 [Example E13, 5-(2-Methyl-1,3,4-oxadiazol-5-yl)-1-azabicyclo[3 1.1]heptane oxalate salt]	207 nM	16500 nM
CO/N=C/C12CCCN(C1)C2 [Example E14, oxalate salt]	109 nM	24000 nM
c1coc(C23CCCN(C2)C3)n1 [Example E4, 5-(1,3-Oxazol-2-yl)-1-azabicvclo[3.1.1]heptane oxalate salt]	540 nM	60000 nM
CCCc1noc(C23CCCN(C2)C3)n1 [Example E6, 5-(3-Propyl-1,2,4-oxadiazol-5-yl)-1-azabicyclo[3.1.11]heptane oxalate salt]	40 nM	1700 nM
COCc1noc(C23CCCN(C2)C3)n1 [Example E9, 5-(3-Methoxymethyl-1,2,4-oxadiazol-5-yl)-1-azabicyclo-[3.1.11]heptane oxalate salt]	178 nM	13000 nM
CON=C(C)C12CCCN(C1)C2 [Example E15, E and Z-5-Acetyl-1-azabicyclo[3.1.1]heptane O-methyloxime oxalate salt]	290 nM	58000 nM
CCCCc1noc(C23CCCN(C2)C3)n1 [Example E8, 5-(3-Butyl-1,2,4-oxadiazol-5-yl)-1-azabicyclo[3.1.11]heptane oxalate salt]	49 nM	1950 nM
CCCCCc1noc(C23CCCN(C2)C3)n1 [Example E10, 5-(3-Pentyl-1,2,4-oxadiazol-5-yl)-1-azabicyclo[3.1.1]heptane oxalate salt]	141 nM	2400 nM
Nc1noc(C23CCCN(C2)C3)n1 [Example E1, 5-(3-Amino-1,2,4-oxadiazol-5-yl)-1-azabicyclo[3.1.11]heptane]	11 nM	11000 nM
C1CN2CC(c3nc(C4CC4)no3)(C1)C2 [Example E7, 5-(3-Cyclopropyl-1,2,4-oxadiazol-5-yl)-1-azabicyclo-[3.1.1]heptane oxalate salt]	62 nM	580 nM
C/C=C/Cc1noc(C23CCCN(C2)C3)n1 [Example E11, E-5-(3-But-2-enyl-1,2,4-oxadiazol-5-yl)-1-azabicyclo-[3.1.11]heptane oxalate salt]	165 nM	1850 nM
Cc1noc(C23CCCN(C2)C3)n1 [Example E2, 5-(3-Methyl-1,2,4-oxadiazol-5-yl)-1-azabicyclo[3.1.1]heptane oxalate salt]	15 nM	5000 nM
c1ncc(C23CCCN(C2)C3)o1 [Example E3, 5-(1,3-Oxazol-5-yl)-1-azabicyc[3.1.1]heptane oxalate salt]	37 nM	6250 nM
